Experiment in all cases: inhibition of tumour cell growth, NCI panel, 48 h
The test system of test [1] is 786-0 renal.
The subject of test [2] is UACC-62 melanoma.
Test [3] relates to RXF 393 renal.
The test system of test [4] is A549 NSCLC.
Test [5] has as its system OVCAR-8 ovarian.
Test [6] deals with UO-31 renal.
Test [7] concerns HCT-116 colon.
Test [8] concerns BT-549 breast.
Test [9] relates to M14 melanoma.
In test [10] the test system is MALME-3M melanoma.
Test [11] has as its system SNB-19 CNS.
Test [12] relates to HCT-15 colon.
Test [13] deals with T-47D breast.
The subject of test [14] is NCI-H23 lung.
Test [15] relates to HCC-2998 colon.
Test [16] deals with SK-OV-3 ovarian.
Test [17] has as its system HS 578T breast.
In test [18] the test system is SF-295 CNS.
Test [19] has as its system SK-MEL-2 melanoma.
The subject of test [20] is SNB-75 CNS.

The values below come from PubChem BioAssay (NCI).

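Results reflect a 48-hour exposure of cells in 96-well plates to compound at five concentrations. TGI marks complete inhibition of growth.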 Where only a bound is given, the exact number is not on record here.

For the molecule `CCCCSC1=N/C(=C\c2ccccc2O)C(=O)N1`, the TGI in test [1], in [2], in test [3], in test [4], in test [5] and in test [6] was > 100 µM in each case. For the same molecule, the TGI in [7], in test [8], in test [9], in test [10], in test [11] and in test [12] was > 100 µM each time. Besides, the TGI in [13], in [14], in [15], in test [16], in test [17] and in test [18] was > 100 µM in each case. In addition, the TGI in test [19] and in test [20] was > 100 µM in each case.

For the molecule `C#CC1(O)CCC2[C@@H]3CCc4cc(Oc5nc(F)nc(-c6c(C)c(C(=O)OCC)n7ccccc67)n5)ccc4C3CC[C@@]21C` (stereo not given in full), the TGI in test [1], in [2], in [3], in [4], in test [5] and in [6] was > 100 µM throughout. The TGI in test [7], in [8], in [9], in test [10], in test [11] and in test [12] was > 100 µM each time. Moreover, the TGI in [13], in [14], in test [15], in test [16], in [17] and in test [18] was > 100 µM throughout. The TGI in test [19] and in [20] was > 100 µM each time.

With `NC1=Nc2ccccc2Sc2nncn21`, the TGI in test [1], in [2], in [3], in test [4], in test [5] and in test [6] was > 100 µM each time. The TGI in test [7], in [8], in test [9], in test [10], in test [11] and in test [12] was > 100 µM throughout. The TGI in [13], in test [14], in test [15], in test [16], in test [17] and in test [18] was > 100 µM in each case. Besides, the TGI in test [19] and in test [20] was > 100 µM each time.

For `COc1cc(C2C=C(c3ccccc3)Oc3cc4c(cc32)OCO4)cc(OC)c1OC` (stereo not given), the TGI is > 19.6 µM in [1]; > 100 µM in [2]; > 100 µM in test [3]; > 100 µM in test [4]; > 32.6 µM in [5]; > 100 µM in test [6]. For the same molecule, the TGI was 9.44 µM in test [7]; > 100 µM in test [8]; > 100 µM in test [9]; > 100 µM in [10]; > 100 µM in test [11]; > 100 µM in [12]. Moreover, the TGI in test [13] is > 100 µM; in [14], > 27 µM; in [15], > 100 µM; in test [16], > 100 µM; in [17] it was > 100 µM; in [18] it was > 16.9 µM. Besides, the values for the TGI in [19] and in test [20] were > 81.1 µM and > 90.8 µM, respectively.

As to `Cc1nc(-c2ccccc2)cn2c1nc1ccccc12`, the TGI stood at 50.9 µM in [1]; 31.7 µM in test [2]; 55.5 µM in [3]; 34.8 µM in test [4]; 37.3 µM in test [5]; 46.5 µM in [6]. For the same molecule, the TGI is > 70.9 µM in test [7]; 38.9 µM in test [8]; > 82.8 µM in test [9]; 48.9 µM in test [10]; > 76.2 µM in [11]; > 68.5 µM in test [12]. Besides, the TGI in test [13] is > 24.9 µM; in [14], > 77.7 µM; in test [15], > 100 µM; in test [16], 26 µM; in [17] it was > 87.5 µM; in test [18], > 65.8 µM. Also, the results for the TGI in test [19] and in test [20] were 43.5 µM and > 52.2 µM, respectively.

Take `NS(=O)(=O)c1ccc(NC(=O)N/N=C/c2ccccc2[N+](=O)[O-])cc1`: the TGI in [1], in test [2], in [3], in [4], in test [5] and in test [6] was > 100 µM in each case. Also, the TGI in test [7] is > 100 µM; in test [8] it was > 100 µM; in [9], 85.3 µM; in test [10], > 100 µM; in [11], > 100 µM; in [12] it was > 100 µM. The TGI in test [13], in [14], in test [15], in [16], in test [17] and in test [18] was > 100 µM each time. Besides, the TGI in test [19] and in test [20] was > 100 µM in each case.

With `C(=N\c1nc2cc3sc(/N=C/c4ccccc4)nc3cc2s1)/c1ccccc1`, the TGI in test [1], in [2], in test [3], in test [4], in test [5] and in [6] was > 100 µM in each case. The TGI in test [7], in test [8], in test [9], in test [10], in test [11] and in test [12] was > 100 µM throughout. In addition, the TGI in [13] was > 100 µM; in test [14], > 100 µM; in [15] it was > 100 µM; in test [16], > 100 µM; in [17], 97.4 µM; in [18], > 100 µM. The TGI in test [19] and in [20] was > 100 µM in each case.
